Test results from patent publication US10588893B2, “Ointment containing an oxazole compound” (OTSUKA PHARMACEUTICAL CO., LTD., priority 2015, dated 2020).

Tests used:
[1] = Solubility of compound (11) in various solvents; assay type: physicochemical
Source text: (§1) To select a solvent for dissolving compound (11) in preparing an ointment containing compound (11), the solubility of compound (11) in various solvents was studied. […] Such a case may result in precipitation of compound (11). Thus, a solvent that has a high solubility of compound (11) but that has […] miscibility (compatibility) with petrolatum or paraffin is relatively preferable for use.

[2] = Miscibility of compound (11) solvent solution with petrolatum; assay type: physicochemical
Source text: as §1

In the case of CCOc1ccccc1C(=O)NCc1coc(-c2ccc(OC(F)F)c(OC(C)C)c2)n1 [Compound (11)], the “solubility of compound (11), in words” value ([1]; in triacetin and propylene carbonate) is reported as “relatively high”, the “Solubility (W/W %)” value ([1]; solvent: Decyl oleate) is reported as 2.6 W/W % and the “Solubility (W/W %)” value ([1]; solvent: Diethyl sebacate) is reported as 42.6 W/W %. For the same molecule, the “Solubility (W/W %)” value ([1]; solvent: Diisopropyl adipate) was 40.3 W/W %, the “Solubility (W/W %)” value ([1]; solvent: Hexyldodecanol) was 5.4 W/W % and the “Solubility (W/W %)” value ([1]; solvent: Isopropyl myristate) was 6.0 W/W %. For the same molecule, the “Solubility (W/W %)” value ([1]; solvent: Isostearic acid) was 19.8 W/W %, the “Solubility (W/W %)” value ([1]; solvent: Isostearyl alcohol) was 5.1 W/W % and the “Solubility (W/W %)” value ([1]; solvent: Liquid Paraffin) was 0.1 W/W %. For the same molecule, the “Solubility (W/W %)” value ([1]; solvent: Olive oil) was 6.1 W/W %, the “Solubility (W/W %)” value ([1]; solvent: Propylene carbonate) was 56.9 W/W % and the “Solubility (W/W %)” value ([1]; solvent: Triacetine) was 32.5 W/W %. For the same molecule, the “Miscibility of Compound (11) Solvent Solution with Petrolatum” value (from here on “Miscibility of Compound”) ([2]; solvent: Decyl oleate) was “Miscible”, the “Miscibility of Compound” value ([2]; solvent: Diethyl sebacate) was “Miscible” and the “Miscibility of Compound” value ([2]; solvent: Diisopropyl adipate) was “Miscible”. The “Miscibility of Compound” value ([2]; solvent: Hexyldodecanol) was “Miscible”, the “Miscibility of Compound” value ([2]; solvent: Isopropyl myristate) was “Miscible” and the “Miscibility of Compound” value ([2]; solvent: Isostearic acid) was “Miscible”. For the same molecule, the “Miscibility of Compound” value ([2]; solvent: Isostearyl alcohol) was “Miscible”, the “Miscibility of Compound” value ([2]; solvent: Liquid Paraffin) was “Miscible” and the “Miscibility of Compound” value ([2]; solvent: Olive oil) was “Miscible”. The “Miscibility of Compound” value ([2]; solvent: Propylene carbonate) was “Immiscible” and the “Miscibility of Compound” value ([2]; solvent: Triacetine) was “Immiscible”.
